In patent US20230201179A1, “AGENT FOR TREATING CONTRAST-INDUCED ACUTE KIDNEY INJURY” (APTABIO THERAPEUTICS INC., priority 2020, published 2023):

Legend:
reactive oxygen species = test: Inhibitory effect on the formation of reactive oxygen species
[1] = test system: contrast media-induced acute kidney injury; test: Efficacy evaluation in animal model with contrast media-induced acute kidney injury in mice; type: in vivo, C57BL/6 mice
Procedure: As the experimental animals, 6-week-old male C57BL/6 mice were purchased from LionBio. All mice were maintained under standard conditions. After breeding for about 2 weeks, at 8 weeks of age, Compound 1 (3-phenyl-4-n-propyl-1-(pyridin-2-yl)-1H-pyrazol-5-ol hydrochloride) was orally administered at a dose of 60 mg/kg daily for 5 days before administration of contrast media. In order to induce acute kidney injury, after a fast of 16 hours, the anti-inflammatory analgesic indomethacin (10 mg/kg) and the NO blocker N-nitro-L-arginine (L-NAME, 10 mg/kg) were intraperitoneally administered 15 minutes before administration of contrast media, and contrast media (Iohexol, 4000 mg iodine/kg) was intraperitoneally administered 15 minutes later. After 24 hours of supplying food and water, the animal test substances were classified into three groups: vehicle administered group (Control) and contrast media administered group (Iohexol), and contrast media and Compound 1 simultaneously administered group (Iohexol+Compound 1). After completion of the test, the animals were anesthetized, kidney tissue was enucleated for each individual, and blood was taken for examination. The tissues were fixed in 10% buffered neutral formalin solution. The fixed tissues were sliced to a certain thickness and paraffin-embedded through a general tissue processing process to produce a tissue section of 4 to 5 μm, and then hematoxylin & eosin staining (H&E stain), which is a general staining method, was performed to observe histopathologically the extent of kidney injury in the region of the renal cortex and renal medulla, and F4/80 staining, Tunel staining, DHE staining and nitrotyrosine staining were performed to observe the effects of inflammation and oxidative stress in the kidney injury tissue. Blood was taken and centrifuged at 3000 rpm, 4° C. for 10 minutes, and the upper layer of serum was taken and the level of blood urea nitrogen (BUN) and creatinine was measured using an automatic blood biochemical analyzer (AU480, Beckman Coulter, USA) to confirm the indicator of kidney injury. Histologic evaluation of the degree of kidney injury was calculated as 0 point for no renal tubular injury, 1 point for mild injury, 2 points for intratubular vacuolar lesions less than 25-60%, and 3 points for intratubular vacuolar lesions of 60% or more, thereby formulating the average value of renal tubular injury under the microscope field of view.

[2] = 60 mg/kg orally once a day for 5 days before Iohexol, vs contrast media-treated group

CCCCc1c(-c2ccccc2)nn(-c2ccccn2)c1O [3-phenyl-4-butyl-1-(pyridin-2-yl)-1H-pyrazol-5-ol]
inhibitory effect on the formation of reactive oxygen species (reactive oxygen species): inhibitory effect

CCc1c(-c2ccccc2)nn(-c2ccccn2)c1O [3-phenyl-4-ethyl-1-(pyridin-2-yl)-1H-pyrazol-5-ol]
inhibitory effect on the formation of reactive oxygen species (reactive oxygen species): inhibitory effect

CCCc1c(-c2ccccc2)nn(-c2ccccn2)c1O [3-phenyl-4-propyl-1-(pyridin-2-yl)-1H-pyrazol-5-ol]
inhibitory effect on the formation of reactive oxygen species (reactive oxygen species): inhibitory effect

CCCc1c(-c2ccccc2)nn(-c2ccccn2)c1O.Cl [Compound 1, 3-phenyl-4-propyl-1-(pyridin-2-yl)-1H-pyrazol-5-ol hydrochloride]
kidney injury of the renal medulla and the renal cortex (H&E histopathology, FIG. 1) ([1]; 60 mg/kg orally once a day for 5 days before Iohexol 4000 mg iodine/kg i.p., vs contrast media-treated group): remarkably reduced
renal tubular injury score (FIG. 5) ([1]; 60 mg/kg orally once a day for 5 days before Iohexol, score 0-3, renal biopsy): remarkably reduced
activated oxygen (reactive oxygen species, DHE staining) in the kidney tissue (FIG. 8) [1, 2]: remarkably reduced
concentration of BUN (serum, FIG. 2) [1, 2]: decreased
concentration of KIM-1 in the urine (FIG. 4) [1, 2]: decreased
concentration of NGAL in the urine (FIG. 4) [1, 2]: decreased
concentration of creatinine (Serum Cr, FIG. 3) [1, 2]: decreased
concentration of microproteinuria (albumin) in the urine (FIG. 4) [1, 2]: decreased
infiltration of inflammatory cells (macrophages, F4/80-positive cells) within the kidney tissue (FIG. 7) [1, 2]: remarkably reduced
inflammation (MCP-1 gene expression) in the kidney tissue (FIG. 6) [1, 2]: remarkably reduced
nitrotyrosine in the kidney tissue (FIG. 9) [1, 2]: remarkably reduced
